The record followed here is paper PMC13110849 (ACS chemical neuroscience, 2023).

The target in this test is RhoA•GMPPNP binding to ROCK1 (Homo sapiens, UniProt P61586). The test is described as follows: AlphaScreen assay of RhoA•GMPPNP binding to ROCK1. Conditions: varying concentration, 24 h, 4 °C. For orientation: Alpha assays give light when donor and acceptor beads are brought close together.
RhoA•GMPPNP binding to ROCK1, sequence (P61586 whole entry): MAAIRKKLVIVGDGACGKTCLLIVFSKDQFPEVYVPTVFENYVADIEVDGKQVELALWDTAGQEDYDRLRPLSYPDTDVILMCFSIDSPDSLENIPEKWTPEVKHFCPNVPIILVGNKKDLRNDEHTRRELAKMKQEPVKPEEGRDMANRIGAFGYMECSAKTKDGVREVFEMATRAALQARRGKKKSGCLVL

In the case of `Nc1nc2c(ncn2[C@@H]2O[C@H](COP(=O)(O)OP(=O)(O)O)[C@@H](O)[C@H]2O)c(=O)[nH]1` [GDP], the “Inhibition of RhoA•GMPPNP binding to ROCK1” value is “successfully inhibited”.
